{"source": "patent US11452694B2", "about": "“High concentration dosage forms of pridopidine” (PRILENIA NEUROTHERAPEUTICS LTD., priority 2017, dated 2022)", "origin": "cited, not measured here", "tested_on": "neuroblastoma cell line", "conditions": "SIR-dependent manner"}
{"smiles": "CCCN1CCC(c2cccc(S(C)(=O)=O)c2)CC1", "note": "[Pridopidine, 4-(3-(Methylsulfonyl)phenyl)-1-propylpiperidine]", "values": [{"measurement": "secretion of brain-derived neurotrophic factor (BDNF)", "result": "enhance secretion"}]}
